Laboratory results published in PubChem BioAssay (NCI).
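The compound was tested at five concentrations on cells cultured in 96-well plates, with a 48-hour exposure period. GI50 = concentration required for 50% inhibition of growth. TGI marks complete inhibition of growth.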

Tests used:
Assay in all cases: growth of human tumour cells (NCI), 48 h
786-0 renal = tested on: 786-0 renal
A498 renal = tested on: A498 renal
A549 NSCLC = tested on: A549 NSCLC
ACHN renal = tested on: ACHN renal
BT-549 breast = tested on: BT-549 breast
CAKI-1 renal = tested on: CAKI-1 renal
CCRF-CEM leukemia = tested on: CCRF-CEM leukemia
COLO 205 colon = tested on: COLO 205 colon
DU-145 prostate = tested on: DU-145 prostate
HCC-2998 colon = tested on: HCC-2998 colon
HCT-116 colon = tested on: HCT-116 colon
HCT-15 colon = tested on: HCT-15 colon
HL-60(TB) leukemia = tested on: HL-60(TB) leukemia
HOP-62 NSCLC = tested on: HOP-62 NSCLC
HOP-92 NSCLC = tested on: HOP-92 NSCLC
HS 578T breast = tested on: HS 578T breast
HT29 colon = tested on: HT29 colon
IGROV1 ovarian = tested on: IGROV1 ovarian
K-562 leukemia = tested on: K-562 leukemia
KM12 colon = tested on: KM12 colon
LOX IMVI melanoma = tested on: LOX IMVI melanoma
M14 melanoma = tested on: M14 melanoma
MALME-3M melanoma = tested on: MALME-3M melanoma
MCF7 breast = tested on: MCF7 breast
MDA-MB-231 breast = tested on: MDA-MB-231 breast
MDA-MB-435 = tested on: MDA-MB-435
MOLT-4 leukemia = tested on: MOLT-4 leukemia
NCI-H226 lung = tested on: NCI-H226 lung
NCI-H23 lung = tested on: NCI-H23 lung
NCI-H460 lung = tested on: NCI-H460 lung
NCI-H522 lung = tested on: NCI-H522 lung
NCI/ADR-RES ovarian = tested on: NCI/ADR-RES ovarian
OVCAR-3 ovarian = tested on: OVCAR-3 ovarian
OVCAR-4 ovarian = tested on: OVCAR-4 ovarian
OVCAR-5 ovarian = tested on: OVCAR-5 ovarian
OVCAR-8 ovarian = tested on: OVCAR-8 ovarian
PC-3 prostate = tested on: PC-3 prostate
RPMI-8226 leukemia = tested on: RPMI-8226 leukemia
RXF 393 renal = tested on: RXF 393 renal
SF-268 CNS = tested on: SF-268 CNS
SF-295 CNS = tested on: SF-295 CNS
SF-539 CNS = tested on: SF-539 CNS
SK-MEL-2 melanoma = tested on: SK-MEL-2 melanoma
SK-MEL-28 melanoma = tested on: SK-MEL-28 melanoma
SN12C renal = tested on: SN12C renal
SNB-19 CNS = tested on: SNB-19 CNS
SNB-75 CNS = tested on: SNB-75 CNS
SR leukemia = tested on: SR leukemia
SW-620 colon = tested on: SW-620 colon
T-47D breast = tested on: T-47D breast
TK-10 renal = tested on: TK-10 renal
U251 CNS = tested on: U251 CNS
UACC-62 melanoma = tested on: UACC-62 melanoma
UO-31 renal = tested on: UO-31 renal

CN(CCOc1ccc(NS(C)(=O)=O)cc1)CCc1ccc(NS(C)(=O)=O)cc1
GI50 (786-0 renal): > 100 µM | TGI (786-0 renal): > 100 µM | GI50 (A498 renal): 96 µM | TGI (A498 renal): > 100 µM | GI50 (A549 NSCLC): > 100 µM | TGI (A549 NSCLC): > 100 µM | GI50 (ACHN renal): > 100 µM | TGI (ACHN renal): > 100 µM | GI50 (BT-549 breast): > 100 µM | TGI (BT-549 breast): > 100 µM | GI50 (CAKI-1 renal): > 100 µM | TGI (CAKI-1 renal): > 100 µM | GI50 (CCRF-CEM leukemia): > 100 µM | TGI (CCRF-CEM leukemia): > 100 µM | GI50 (COLO 205 colon): > 100 µM | TGI (COLO 205 colon): > 100 µM | GI50 (DU-145 prostate): > 100 µM | TGI (DU-145 prostate): > 100 µM | GI50 (HCC-2998 colon): > 100 µM | TGI (HCC-2998 colon): > 100 µM | GI50 (HCT-116 colon): > 100 µM | TGI (HCT-116 colon): > 100 µM | GI50 (HCT-15 colon): > 100 µM | TGI (HCT-15 colon): > 100 µM | GI50 (HL-60(TB) leukemia): > 100 µM | TGI (HL-60(TB) leukemia): > 100 µM | GI50 (HOP-62 NSCLC): > 100 µM | TGI (HOP-62 NSCLC): > 100 µM | GI50 (HOP-92 NSCLC): > 100 µM | TGI (HOP-92 NSCLC): > 100 µM | GI50 (HS 578T breast): > 100 µM | TGI (HS 578T breast): > 100 µM | GI50 (HT29 colon): > 100 µM | TGI (HT29 colon): > 100 µM | GI50 (IGROV1 ovarian): > 100 µM | TGI (IGROV1 ovarian): > 100 µM | GI50 (K-562 leukemia): > 100 µM | TGI (K-562 leukemia): > 100 µM | GI50 (KM12 colon): > 100 µM | TGI (KM12 colon): > 100 µM | GI50 (LOX IMVI melanoma): > 100 µM | TGI (LOX IMVI melanoma): > 100 µM | GI50 (M14 melanoma): > 100 µM | TGI (M14 melanoma): > 100 µM | GI50 (MALME-3M melanoma): > 100 µM | TGI (MALME-3M melanoma): > 100 µM | GI50 (MCF7 breast): > 100 µM | TGI (MCF7 breast): > 100 µM | GI50 (MDA-MB-231 breast): > 100 µM | TGI (MDA-MB-231 breast): > 100 µM | GI50 (MDA-MB-435): > 100 µM | TGI (MDA-MB-435): > 100 µM | GI50 (MOLT-4 leukemia): > 100 µM | TGI (MOLT-4 leukemia): > 100 µM | GI50 (NCI-H226 lung): > 100 µM | TGI (NCI-H226 lung): > 100 µM | GI50 (NCI-H23 lung): > 100 µM | TGI (NCI-H23 lung): > 100 µM | GI50 (NCI-H460 lung): > 100 µM | TGI (NCI-H460 lung): > 100 µM | GI50 (NCI-H522 lung): > 100 µM | TGI (NCI-H522 lung): > 100 µM | GI50 (NCI/ADR-RES ovarian): > 100 µM | TGI (NCI/ADR-RES ovarian): > 100 µM | GI50 (OVCAR-3 ovarian): > 100 µM | TGI (OVCAR-3 ovarian): > 100 µM | GI50 (OVCAR-4 ovarian): > 100 µM | TGI (OVCAR-4 ovarian): > 100 µM | GI50 (OVCAR-5 ovarian): > 100 µM | TGI (OVCAR-5 ovarian): > 100 µM | GI50 (OVCAR-8 ovarian): > 100 µM | TGI (OVCAR-8 ovarian): > 100 µM | GI50 (PC-3 prostate): > 100 µM | TGI (PC-3 prostate): > 100 µM | GI50 (RPMI-8226 leukemia): > 100 µM | TGI (RPMI-8226 leukemia): > 100 µM | GI50 (RXF 393 renal): > 100 µM | TGI (RXF 393 renal): > 100 µM | GI50 (SF-268 CNS): > 100 µM | TGI (SF-268 CNS): > 100 µM | GI50 (SF-295 CNS): > 100 µM | TGI (SF-295 CNS): > 100 µM | GI50 (SF-539 CNS): > 100 µM | TGI (SF-539 CNS): > 100 µM | GI50 (SK-MEL-2 melanoma): > 100 µM | TGI (SK-MEL-2 melanoma): > 100 µM | GI50 (SK-MEL-28 melanoma): > 100 µM | TGI (SK-MEL-28 melanoma): > 100 µM | GI50 (SN12C renal): > 100 µM | TGI (SN12C renal): > 100 µM | GI50 (SNB-19 CNS): > 100 µM | TGI (SNB-19 CNS): > 100 µM | GI50 (SNB-75 CNS): > 100 µM | TGI (SNB-75 CNS): > 100 µM | GI50 (SR leukemia): > 100 µM | TGI (SR leukemia): > 100 µM | GI50 (SW-620 colon): > 100 µM | TGI (SW-620 colon): > 100 µM | GI50 (T-47D breast): > 100 µM | TGI (T-47D breast): > 100 µM | GI50 (TK-10 renal): > 100 µM | TGI (TK-10 renal): > 100 µM | GI50 (U251 CNS): > 100 µM | TGI (U251 CNS): > 100 µM | GI50 (UACC-62 melanoma): > 100 µM | TGI (UACC-62 melanoma): > 100 µM | GI50 (UO-31 renal): > 100 µM | TGI (UO-31 renal): > 100 µM
